For experiment [1], the target named is T1, 5-hydroxytryptamine receptor 1A (Rattus norvegicus, UniProt P19327).
T1 sequence (P19327 whole entry): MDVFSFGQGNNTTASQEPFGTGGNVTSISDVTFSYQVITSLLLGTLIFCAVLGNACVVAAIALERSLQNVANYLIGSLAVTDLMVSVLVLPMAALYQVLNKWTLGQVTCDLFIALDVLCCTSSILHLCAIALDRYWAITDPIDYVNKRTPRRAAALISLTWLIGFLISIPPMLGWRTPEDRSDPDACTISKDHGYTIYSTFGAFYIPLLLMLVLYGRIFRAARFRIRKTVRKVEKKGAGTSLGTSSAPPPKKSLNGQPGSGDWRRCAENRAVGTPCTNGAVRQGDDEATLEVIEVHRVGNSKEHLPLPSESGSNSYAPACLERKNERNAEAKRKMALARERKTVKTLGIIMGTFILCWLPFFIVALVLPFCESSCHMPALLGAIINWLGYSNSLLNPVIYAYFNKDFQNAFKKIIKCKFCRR
The experiment is described as follows: Binding affinity to the rat 5-hydroxytryptamine 1A receptor.

The target of experiment [2] is 5-hydroxytryptamine receptor 7 (Rattus norvegicus, UniProt P32305). The experiment is described as follows: Binding affinity to the rat 5-hydroxytryptamine 7 receptor.
Experiment [3] deals with 5-hydroxytryptamine receptor 2A (Rattus norvegicus, UniProt P14842). The experiment is described as follows: Binding affinity of compound was tested for 5-hydroxytryptamine 2A receptor.
The target in experiment [4] is T2, Adrenergic receptor alpha-1 (Rattus norvegicus, UniProt P15823+P23944+P43140).
T2 sequence (P15823 whole entry): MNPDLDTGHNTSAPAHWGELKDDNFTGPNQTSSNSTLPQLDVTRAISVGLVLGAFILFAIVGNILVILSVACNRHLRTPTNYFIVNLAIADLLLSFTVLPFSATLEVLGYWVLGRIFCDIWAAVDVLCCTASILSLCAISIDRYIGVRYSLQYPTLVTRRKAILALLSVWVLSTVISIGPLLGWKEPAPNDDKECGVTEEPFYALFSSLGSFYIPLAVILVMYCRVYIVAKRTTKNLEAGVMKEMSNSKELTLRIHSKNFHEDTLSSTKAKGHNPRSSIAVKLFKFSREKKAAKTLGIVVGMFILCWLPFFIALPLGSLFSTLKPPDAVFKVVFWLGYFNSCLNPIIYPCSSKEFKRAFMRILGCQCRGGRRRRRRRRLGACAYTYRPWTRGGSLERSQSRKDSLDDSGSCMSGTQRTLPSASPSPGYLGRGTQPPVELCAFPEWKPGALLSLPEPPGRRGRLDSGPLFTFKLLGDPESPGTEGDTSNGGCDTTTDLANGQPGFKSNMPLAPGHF
T2 sequence (P23944 whole entry): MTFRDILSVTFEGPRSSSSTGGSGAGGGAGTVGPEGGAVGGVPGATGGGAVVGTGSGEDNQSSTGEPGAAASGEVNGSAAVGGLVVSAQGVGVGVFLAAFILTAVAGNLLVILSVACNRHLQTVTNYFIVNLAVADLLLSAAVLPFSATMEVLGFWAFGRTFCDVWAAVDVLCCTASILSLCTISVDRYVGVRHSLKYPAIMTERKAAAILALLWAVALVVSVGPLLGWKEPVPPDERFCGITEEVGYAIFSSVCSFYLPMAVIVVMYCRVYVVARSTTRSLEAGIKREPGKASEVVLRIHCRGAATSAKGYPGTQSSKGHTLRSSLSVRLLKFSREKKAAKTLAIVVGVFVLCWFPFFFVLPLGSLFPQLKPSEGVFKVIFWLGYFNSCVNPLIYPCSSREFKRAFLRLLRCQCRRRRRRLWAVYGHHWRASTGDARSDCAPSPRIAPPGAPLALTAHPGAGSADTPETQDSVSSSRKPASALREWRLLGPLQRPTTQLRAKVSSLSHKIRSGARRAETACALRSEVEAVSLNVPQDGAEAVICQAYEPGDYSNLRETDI
T2 sequence (P43140 whole entry): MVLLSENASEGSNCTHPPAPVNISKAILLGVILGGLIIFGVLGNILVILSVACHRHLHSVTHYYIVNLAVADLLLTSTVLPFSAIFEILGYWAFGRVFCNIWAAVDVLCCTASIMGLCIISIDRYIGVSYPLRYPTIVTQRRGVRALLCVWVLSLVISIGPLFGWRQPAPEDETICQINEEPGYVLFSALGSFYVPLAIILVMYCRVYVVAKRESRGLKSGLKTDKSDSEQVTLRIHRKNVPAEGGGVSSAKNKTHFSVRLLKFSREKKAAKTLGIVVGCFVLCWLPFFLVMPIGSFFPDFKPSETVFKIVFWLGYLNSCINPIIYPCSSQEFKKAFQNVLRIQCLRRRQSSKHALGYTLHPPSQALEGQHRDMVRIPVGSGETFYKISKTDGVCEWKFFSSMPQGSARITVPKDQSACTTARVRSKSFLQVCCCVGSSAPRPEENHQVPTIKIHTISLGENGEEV
The experiment can be described thus: Binding affinity of compound was tested for Alpha-1 adrenergic receptor. The experiment is classed as protein assay.

The target of the next experiment is D(2) dopamine receptor (Homo sapiens, UniProt P14416). The experiment is described as follows: Binding affinity of compound was tested for Dopamine receptor D2L.
Another experiment deals with T3, D(4) dopamine receptor (Homo sapiens, UniProt P21917).
T3 sequence (P21917 whole entry): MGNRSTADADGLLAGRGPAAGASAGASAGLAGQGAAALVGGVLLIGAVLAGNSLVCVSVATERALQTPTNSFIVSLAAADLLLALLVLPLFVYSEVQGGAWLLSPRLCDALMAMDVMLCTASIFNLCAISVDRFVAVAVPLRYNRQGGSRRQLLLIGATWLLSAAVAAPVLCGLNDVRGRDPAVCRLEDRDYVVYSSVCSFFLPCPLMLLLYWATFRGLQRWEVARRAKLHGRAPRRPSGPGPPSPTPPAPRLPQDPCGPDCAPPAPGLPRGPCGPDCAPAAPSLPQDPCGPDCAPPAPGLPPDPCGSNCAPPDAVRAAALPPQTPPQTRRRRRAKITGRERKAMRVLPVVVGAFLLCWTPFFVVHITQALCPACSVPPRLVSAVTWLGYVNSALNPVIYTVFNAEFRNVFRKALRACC
The experiment is described as follows: Binding affinity of compound was tested for Dopamine receptor D4.

For the next experiment, the target named is D(3) dopamine receptor (Rattus norvegicus, UniProt P19020). The experiment can be described thus: Binding affinity of compound was tested for Dopamine receptor D3.
Experiment [5] concerns 5-hydroxytryptamine receptor 7 (Cavia porcellus). The experiment is described as follows: Maximal relaxation effect induced by 3 uM compound on substance P stimulated guinea pig ileum with 5-hydroxytryptamine 7 receptor desensitization.
The test system is the same in experiment [6]. The experiment is described as follows: Maximal relaxation effect induced by 3 uM compound on substance P stimulated guinea pig ileum with 5-hydroxytryptamine 7 receptor nondesensitization.
In experiment [7] the target is 5-hydroxytryptamine receptor 7 (Rattus norvegicus) (UniProt P32305). Particulars: Ileum.
Description: Maximal relaxation effect induced by 3 uM compound on substance P stimulated guinea pig ileum with 5-hydroxytryptamine receptor desensitization
Experiment [8] has the same target. The conditions noted are these: Ileum. This is another data set of the same source.

The structures appear in SMILES notation. Calls of active or inactive are those of the source. The calls are words filed in the database; no cut-off is given here.

5-hydroxytryptamine receptor 7, sequence (P32305 whole entry): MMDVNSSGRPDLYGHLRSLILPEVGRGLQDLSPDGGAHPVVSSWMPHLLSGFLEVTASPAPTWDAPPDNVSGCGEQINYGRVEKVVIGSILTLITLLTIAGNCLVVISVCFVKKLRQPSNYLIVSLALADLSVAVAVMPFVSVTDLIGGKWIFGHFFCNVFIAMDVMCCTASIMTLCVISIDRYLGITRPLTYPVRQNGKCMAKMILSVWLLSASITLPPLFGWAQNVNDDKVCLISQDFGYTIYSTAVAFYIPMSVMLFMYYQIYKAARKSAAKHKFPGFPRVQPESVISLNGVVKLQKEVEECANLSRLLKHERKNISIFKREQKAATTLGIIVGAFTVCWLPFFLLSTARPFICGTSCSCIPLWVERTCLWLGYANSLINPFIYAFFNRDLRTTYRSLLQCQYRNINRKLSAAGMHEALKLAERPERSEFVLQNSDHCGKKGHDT
D(3) dopamine receptor, sequence (P19020 whole entry): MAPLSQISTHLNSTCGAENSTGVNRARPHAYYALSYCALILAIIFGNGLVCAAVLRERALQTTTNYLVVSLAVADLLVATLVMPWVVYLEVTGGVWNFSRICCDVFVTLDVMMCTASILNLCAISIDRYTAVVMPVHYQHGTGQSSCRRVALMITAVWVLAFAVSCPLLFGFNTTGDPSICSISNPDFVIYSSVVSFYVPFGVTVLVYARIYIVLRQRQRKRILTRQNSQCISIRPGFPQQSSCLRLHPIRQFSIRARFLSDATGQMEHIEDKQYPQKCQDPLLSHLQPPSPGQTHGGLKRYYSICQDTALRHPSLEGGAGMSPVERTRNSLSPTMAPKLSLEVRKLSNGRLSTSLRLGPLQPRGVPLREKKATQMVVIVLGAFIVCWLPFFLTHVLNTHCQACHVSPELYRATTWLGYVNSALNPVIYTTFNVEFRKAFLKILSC
D(2) dopamine receptor, sequence (P14416 whole entry): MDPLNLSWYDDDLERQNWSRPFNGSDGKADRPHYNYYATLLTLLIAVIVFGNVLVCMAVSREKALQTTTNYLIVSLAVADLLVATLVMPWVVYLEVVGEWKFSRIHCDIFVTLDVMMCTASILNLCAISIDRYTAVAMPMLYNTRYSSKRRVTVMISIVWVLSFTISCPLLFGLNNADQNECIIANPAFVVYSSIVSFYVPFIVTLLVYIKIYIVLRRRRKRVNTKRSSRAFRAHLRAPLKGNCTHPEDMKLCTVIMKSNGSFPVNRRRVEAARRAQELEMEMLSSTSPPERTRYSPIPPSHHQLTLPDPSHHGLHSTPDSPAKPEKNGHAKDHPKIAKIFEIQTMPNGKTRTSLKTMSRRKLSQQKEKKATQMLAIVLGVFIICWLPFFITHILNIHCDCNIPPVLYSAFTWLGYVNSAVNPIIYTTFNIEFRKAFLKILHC
5-hydroxytryptamine receptor 7 (Rattus norvegicus), sequence (P32305 whole entry): as the sequence (P32305 whole entry) above
5-hydroxytryptamine receptor 2A, sequence (P14842 whole entry): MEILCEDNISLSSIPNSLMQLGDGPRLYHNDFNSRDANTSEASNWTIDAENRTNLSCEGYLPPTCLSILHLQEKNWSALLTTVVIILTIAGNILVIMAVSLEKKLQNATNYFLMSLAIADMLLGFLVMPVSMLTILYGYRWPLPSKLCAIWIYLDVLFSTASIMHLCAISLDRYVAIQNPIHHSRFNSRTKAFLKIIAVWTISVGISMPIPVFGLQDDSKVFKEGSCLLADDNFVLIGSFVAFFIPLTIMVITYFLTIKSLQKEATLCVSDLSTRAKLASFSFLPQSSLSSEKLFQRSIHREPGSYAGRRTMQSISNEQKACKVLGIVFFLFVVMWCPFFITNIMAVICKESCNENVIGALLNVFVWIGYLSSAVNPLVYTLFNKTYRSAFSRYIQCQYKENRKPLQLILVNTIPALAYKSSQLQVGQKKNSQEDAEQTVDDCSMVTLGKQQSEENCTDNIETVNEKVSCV

What is called Ki is a measure of affinity in units of concentration, obtained from inhibition or displacement. A lower Ki goes with tighter binding. On to `O=C(CCCCCN1CCN(c2noc3ccccc23)CC1)c1ccccc1O`, for which the Ki in experiment [1] stood at 189 nM; in experiment [2], 2.93 nM; in experiment [3], 7.97 nM; in experiment [4], 96 nM; at D(2) dopamine receptor it was 246 nM; at D(4) dopamine receptor it was 318 nM. Further, the inhibitory constant (Ki) on D(3) dopamine receptor stood at 361 nM. For the same compound, the Relaxation result in experiment [5] is “inactive”. In addition, the Relaxation in experiment [6] stood at 43%.

On to `O=C(CCCCCN1CCN(c2ccccc2)CC1)c1ccccc1O`, for which the results for the Ki in experiment [1] and in experiment [2] were 137 nM and 43 nM, respectively.

Take `COc1ccccc1N1CCN(CCCCCC(=O)c2ccc(O)cc2)CC1`: the inhibitory constant (Ki) in experiment [1] turned out to be 14 nM; in [2] it was 23.7 nM.

`O=C(CCCCCN1CCN(C2CCCCC2)CC1)c1ccccc1O`: the Ki in experiment [1] was more than 850 nM; in experiment [2], more than 800 nM.

`CN1CCN(CCCCCC(=O)c2ccccc2O)CC1`: the Ki in experiment [1] is more than 850 nM; in experiment [2], more than 1000 nM.

For `COc1ccccc1N1CCN(CCCCCC(=O)c2ccccc2O)CC1`, the Ki in [1] and in [2] was 5.8 nM in each case.

For the compound `COc1cccc(C(=O)CCCCCN2CCN(c3ccccc3OC)CC2)c1`, the inhibition constant (Ki) came to 3.4 nM in experiment [1] and 46 nM in experiment [2].

Consider `COc1ccccc1N1CCN(CCCCC(=O)c2ccccc2)CC1`, for which the Ki was 7 nM in [1] and 43.5 nM in [2].

Turning to `COc1ccccc1N1CCN(CCCCC(=O)c2ccc(O)cc2)CC1`, the Ki in experiment [1] was 20 nM; in experiment [2], 59.1 nM.

Take `COc1ccc2onc(N3CCN(CCCCCC(=O)c4ccccc4O)CC3)c2c1`: the inhibition constant (Ki) in experiment [1] turned out to be 389 nM; in [2], 462 nM.

For the compound `O=C(CCCN1CCN(c2noc3ccccc23)CC1)c1ccccc1O`, the Ki in experiment [1] came to 1060 nM; in experiment [2], 19.5 nM.

Consider `O=C(CCCCCN1CCN(c2nc3ccccc3[nH]2)CC1)c1ccccc1O`, for which the Ki in experiment [1] was more than 850 nM; in experiment [2], 682 nM.

In the case of `COc1cccc(C(=O)CCCCN2CCN(c3ccccc3OC)CC2)c1`, the Ki in experiment [1] was found to be 3.4 nM; in [2], 85 nM.

In the case of `NCCc1c[nH]c2ccc(C(N)=O)cc12`, in [2], affinity was put at a Ki of 0.51 nM. Further, the Relaxation result in experiment [7] is “inactive”.

For the compound `COc1ccccc1C(=O)CCCCCN1CCN(c2noc3ccccc23)CC1`, the inhibition constant (Ki) came out at 175 nM in [1]; 0.9 nM in [2]; 9.03 nM in experiment [3]; 0.41 nM in [4]; 78.1 nM at D(2) dopamine receptor; 3.94 nM at D(4) dopamine receptor. The same compound gave an inhibition constant (Ki) at D(3) dopamine receptor of 54.9 nM. Also, the Relaxation entry in [8] is “inactive”.

Take `O=C(CCCCCN1CCN(c2ccccn2)CC1)c1ccccc1O`: the inhibitory constant (Ki) was 56 nM in experiment [1] and 105 nM in experiment [2].

In the case of `O=C(CCCCN1CCN(c2noc3ccccc23)CC1)c1ccccc1O`, the Ki in [1] came out at 919 nM; in experiment [2] it was 52 nM.

In the case of `COc1cccc(C(=O)CCCN2CCN(c3ccccc3OC)CC2)c1`, the inhibitory constant (Ki) in [1] was 0.78 nM; in experiment [2], 109 nM.

`O=C(CCCCCN1CCN(c2cccc(C(F)(F)F)c2)CC1)c1ccccc1O`: the Ki is 282 nM in experiment [1] and 384 nM in experiment [2].

Take `O=C(CCCCCN1CCN(c2nc3ccccc3o2)CC1)c1ccccc1O`: the inhibition constant Ki in [1] was 1460 nM; in [2], 148 nM.

In the case of `COc1ccccc1N1CCN(CCCCC(=O)c2cccc(O)c2)CC1`, the inhibitory constant (Ki) is 3.7 nM in experiment [1] and 15 nM in experiment [2].

Regarding `COc1ccccc1N1CCN(CCCCCC(=O)c2cccc(O)c2)CC1`, the inhibition constant (Ki) was 24 nM in experiment [1] and 26.8 nM in experiment [2].

Turning to `COc1ccccc1N1CCN(CCCCC(=O)c2ccccc2O)CC1`, the Ki in [1] was determined as 4.1 nM; in experiment [2], 16.4 nM.

For the compound `COc1ccccc1N1CCN(CCCCCC(=O)c2ccccc2)CC1`, the Ki turned out to be 6.4 nM in experiment [1] and 28.4 nM in experiment [2].

(Values after ChEMBL document CHEMBL1145970 (J Med Chem, 2003).)
